Reference: ChEMBL document CHEMBL1201862, “PubChem BioAssay data set” (2004)
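Tested at 5 concentrations; 48 h exposure; 96-well plates; endpoints linearly interpolated, else capped at highest concentration. At the GI50, growth is halved.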 Activity calls are given as the source filed them. Cut-off read from the data, not from the text of the source: active = GI50 up to about 1.1 µM and inactive = higher.

Assays:
Test in all cases: NCI tumour cell line growth inhibition, 48 h
HOP-62 = system: HOP-62
UO-31 = system: UO-31
NCI/ADR-RES = system: NCI/ADR-RES
LOX IMVI = system: LOX IMVI
KM12 = system: KM12
SK-MEL-28 = system: SK-MEL-28
SF-268 = system: SF-268
HCT-15 = system: HCT-15
EKVX = system: EKVX
ACHN = system: ACHN
NCI-H460 = system: NCI-H460
SN12C = system: SN12C
UACC-257 = system: UACC-257
M14 = system: M14
SK-MEL-5 = system: SK-MEL-5
HOP-92 = system: HOP-92
OVCAR-5 = system: OVCAR-5
T47D = system: T47D
OVCAR-8 = system: OVCAR-8
MDA-N = system: MDA-N

Structure (SMILES)	GI50 (HOP-62)	GI50 (UO-31)	GI50 (NCI/ADR-RES)	GI50 (LOX IMVI)	GI50 (KM12)	GI50 (SK-MEL-28)	GI50 (SF-268)	GI50 (HCT-15)	GI50 (EKVX)	GI50 (ACHN)	GI50 (NCI-H460)	GI50 (SN12C)	GI50 (UACC-257)	GI50 (M14)	GI50 (SK-MEL-5)	GI50 (HOP-92)	GI50 (OVCAR-5)	GI50 (T47D)	GI50 (OVCAR-8)	GI50 (MDA-N)
O=C1/C(=N/N=C(c2ccccc2)c2ccccc2)c2ccccc2-c2ccccc21	> 100 µM (inactive)	45.5 µM (inactive)	54 µM (inactive)	56.4 µM (inactive)	> 100 µM (inactive)	> 100 µM (inactive)	> 100 µM (inactive)	37.8 µM	> 100 µM (inactive)	65.9 µM (inactive)	> 100 µM (inactive)	71.1 µM (inactive)	> 100 µM (inactive)	> 100 µM (inactive)	99.5 µM (inactive)	25.2 µM (inactive)	> 100 µM (inactive)	32.8 µM (inactive)	> 100 µM (inactive)	
CN(NC(=O)/C(=C\c1ccco1)NC(=O)c1ccccc1)c1cn[nH]c(=O)c1Cl	64.3 µM (inactive)	> 100 µM (inactive)	50.2 µM (inactive)	23.2 µM (inactive)	40.6 µM (inactive)	36.6 µM (inactive)	> 100 µM (inactive)	57.3 µM	> 100 µM (inactive)	> 100 µM (inactive)	> 100 µM (inactive)	53.2 µM (inactive)	48.8 µM (inactive)	66.2 µM (inactive)	29.7 µM (inactive)	> 100 µM (inactive)	> 100 µM (inactive)		42.7 µM (inactive)	
COc1cc([C@@H]2c3cc4c(cc3[C@@H](NCc3ccccc3)C3COC(=O)[C@@H]32)OCO4)cc(OC)c1O (some centres undefined)	4 µM (inactive)	7.08 µM (inactive)		5.25 µM (inactive)	12.8 µM (inactive)	25 µM (inactive)	7.19 µM (inactive)	6.34 µM	13.1 µM (inactive)	1.17 µM (inactive)	0.547 µM (active)	3.28 µM (inactive)	27.1 µM (inactive)	6.65 µM (inactive)	11.8 µM (inactive)	5.83 µM (inactive)	29 µM (inactive)		10.8 µM (inactive)	
OCc1c(-c2cccc3ccccc23)sc(-c2cccc3ccccc23)c1CO	13 µM (inactive)	11.1 µM (inactive)		14.6 µM (inactive)	12.4 µM (inactive)	10.4 µM (inactive)	13.2 µM (inactive)	14.7 µM	11.3 µM (inactive)	12.3 µM (inactive)	14.3 µM (inactive)	13.5 µM (inactive)	12.8 µM (inactive)	14.5 µM (inactive)	11.3 µM (inactive)	15.1 µM (inactive)	17 µM (inactive)		13 µM (inactive)	
CCOc1ccccc1NC(=O)C(=O)CC(=O)C1=C(C)Nc2ccccc2S1	> 100 µM (inactive)	> 93.3 µM (inactive)		> 100 µM (inactive)	> 100 µM (inactive)	> 100 µM (inactive)	> 100 µM (inactive)	> 100 µM	> 100 µM (inactive)	> 100 µM (inactive)	> 100 µM (inactive)	> 100 µM (inactive)	> 100 µM (inactive)	> 100 µM (inactive)	> 100 µM (inactive)	> 100 µM (inactive)	> 100 µM (inactive)		> 100 µM (inactive)	
C#CCN(Cc1ccc2nc(-c3ccccc3)c(Cl)nc2c1)c1ccc(Cl)c(Cl)c1	> 100 µM (inactive)	> 100 µM (inactive)		> 100 µM (inactive)	> 100 µM (inactive)	> 100 µM (inactive)	> 100 µM (inactive)	> 100 µM	> 100 µM (inactive)	> 100 µM (inactive)	> 100 µM (inactive)	> 100 µM (inactive)	> 100 µM (inactive)	> 100 µM (inactive)	> 100 µM (inactive)	> 100 µM (inactive)	> 100 µM (inactive)		> 100 µM (inactive)	
CC1(C)CC(=O)C2(CC(CSc3ccccc3)C(CS(=O)(=O)c3ccccc3)C2)C(=O)C1 (centres undefined)	> 100 µM (inactive)	> 100 µM (inactive)	> 100 µM (inactive)	> 100 µM (inactive)	> 100 µM (inactive)	> 100 µM (inactive)	> 100 µM (inactive)	> 100 µM	> 100 µM (inactive)	> 100 µM (inactive)		> 100 µM (inactive)	> 100 µM (inactive)	> 100 µM (inactive)	> 100 µM (inactive)	> 100 µM (inactive)	> 100 µM (inactive)	45.5 µM (inactive)	> 100 µM (inactive)	
O=C(O)C(Br)C(Br)C(=O)O (centres undefined)	> 100 µM (inactive)	> 100 µM (inactive)	> 100 µM (inactive)	> 100 µM (inactive)	> 100 µM (inactive)	> 100 µM (inactive)	> 100 µM (inactive)	> 100 µM	> 100 µM (inactive)	> 100 µM (inactive)	> 100 µM (inactive)	> 100 µM (inactive)	> 100 µM (inactive)	> 100 µM (inactive)	> 100 µM (inactive)	> 100 µM (inactive)	> 100 µM (inactive)		> 100 µM (inactive)	> 100 µM (inactive)
C=C(Br)N(CC)CC	> 100 µM (inactive)	> 100 µM (inactive)		> 100 µM (inactive)	> 100 µM (inactive)	> 100 µM (inactive)	> 100 µM (inactive)	> 100 µM	> 100 µM (inactive)	> 100 µM (inactive)	> 100 µM (inactive)	> 100 µM (inactive)	> 100 µM (inactive)	> 100 µM (inactive)	> 100 µM (inactive)	> 100 µM (inactive)	> 100 µM (inactive)		> 100 µM (inactive)	
O=C1O/C(=C(/Cl)c2cccc3ccccc23)c2ccccc21	46.3 µM (inactive)	> 100 µM (inactive)			7.62 µM (inactive)	> 100 µM (inactive)	81.1 µM (inactive)	> 100 µM	> 100 µM (inactive)		> 100 µM (inactive)	> 100 µM (inactive)	> 100 µM (inactive)	> 100 µM (inactive)	> 100 µM (inactive)	> 100 µM (inactive)	> 100 µM (inactive)		> 100 µM (inactive)	> 100 µM (inactive)
CC/C=C\C/C=C\C/C=C\CCCCCCCC(=O)OCC(O)CO (centres undefined)	> 100 µM (inactive)	16.4 µM (inactive)		39.9 µM (inactive)	> 56.9 µM (inactive)	> 100 µM (inactive)	> 90.8 µM (inactive)	> 63.4 µM	> 88.7 µM (inactive)	> 58.5 µM (inactive)	> 69.3 µM (inactive)	> 95.1 µM (inactive)	> 86.1 µM (inactive)	> 61.7 µM (inactive)	> 59.2 µM (inactive)	> 68.1 µM (inactive)	> 100 µM (inactive)		> 67.8 µM (inactive)	
O=[N+]([O-])c1ccc(Sc2c3ccccc3nc3cc(Cl)ccc23)cc1	> 10 µM (inactive)	> 10 µM (inactive)		> 10 µM (inactive)	> 10 µM (inactive)	> 10 µM (inactive)	> 10 µM (inactive)	> 10 µM	> 10 µM (inactive)	> 10 µM (inactive)	> 10 µM (inactive)	> 10 µM (inactive)	> 10 µM (inactive)	> 10 µM (inactive)	> 10 µM (inactive)	65.2 µM (inactive)	> 10 µM (inactive)		> 10 µM (inactive)	
CCc1nnc(CC)n1NCCCC(=O)O	> 100 µM (inactive)	> 100 µM (inactive)	> 100 µM (inactive)	> 100 µM (inactive)	> 100 µM (inactive)	> 100 µM (inactive)	> 100 µM (inactive)	> 100 µM	> 100 µM (inactive)	> 100 µM (inactive)		> 100 µM (inactive)	> 100 µM (inactive)	> 100 µM (inactive)	> 100 µM (inactive)	> 100 µM (inactive)	> 100 µM (inactive)		> 100 µM (inactive)	> 100 µM (inactive)
CN(C)C(=S)N=C(Nc1ccccc1)Nc1ccccc1	> 100 µM (inactive)	> 100 µM (inactive)		> 100 µM (inactive)	> 100 µM (inactive)	> 100 µM (inactive)	> 100 µM (inactive)	> 100 µM	> 100 µM (inactive)	> 100 µM (inactive)	> 100 µM (inactive)	> 100 µM (inactive)	> 100 µM (inactive)	> 100 µM (inactive)	> 100 µM (inactive)	> 100 µM (inactive)	> 100 µM (inactive)		> 100 µM (inactive)	
CC(C)CC(NC(=O)C(CCI)Cc1ccccc1)C(=O)Nc1ccccc1 (centres undefined)		22.1 µM (inactive)	19 µM (inactive)	33.3 µM (inactive)	37.5 µM (inactive)	> 100 µM (inactive)		49.9 µM	42 µM (inactive)	53.5 µM (inactive)	80.2 µM (inactive)	> 100 µM (inactive)	> 100 µM (inactive)	35.6 µM (inactive)	55.3 µM (inactive)	> 100 µM (inactive)	> 100 µM (inactive)		49.5 µM (inactive)	> 100 µM (inactive)
CCCC(=O)Oc1ccc2c(C)cc(=O)oc2c1OC(=O)CCC	71.3 µM (inactive)	60.1 µM (inactive)	33.2 µM (inactive)	40.8 µM (inactive)	75.3 µM (inactive)	54.2 µM (inactive)	46.2 µM (inactive)	31.8 µM	70.5 µM (inactive)	49.5 µM (inactive)		76.6 µM (inactive)	36.1 µM (inactive)	48.6 µM (inactive)	56 µM (inactive)	41.3 µM (inactive)	> 100 µM (inactive)		34.8 µM (inactive)	> 100 µM (inactive)
